Patent US12371454B2, “Cyclic peptide compound having Kras inhibitory action” (priority 2019, dated 2025)
Positions of bridges follow the written chain, without caps; N, C: chain ends. Non-standard residues stand in square brackets, D forms with d. Residues, ends and D or L forms follow the SMILES beside them. *: point of attachment. hPhe(3-Cl-4-CF3) = N[C@@H](CCc1ccc(C(F)(F)F)c(Cl)c1)C(=O)O; NMePhe(4-CF3) = CN[C@@H](Cc1ccc(C(F)(F)F)cc1)C(=O)O; Phe(2-F,5-Br) = N[C@@H](Cc1cc(Br)ccc1F)C(=O)O; 3Oxa8azabicyclo(3.2.1)octane = C1CC2COCC1N2*; NMeAbu(4,4,4-F3) = CN[C@@H](CC(F)(F)F)C(=O)O; NMeAla(cPent) = CN[C@@H](CC1CCCC1)C(=O)O; Phe(3-I) = N[C@@H](Cc1cccc(I)c1)C(=O)O; Pro(4,4-F2) = O=C(O)[C@@H]1CC(F)(F)CN1; NMeY = CN[C@@H](Cc1ccc(O)cc1)C(=O)O; NMeCha = CN[C@@H](CC1CCCCC1)C(=O)O; NMeChg = CN[C@H](C(=O)O)C1CCCCC1; NMeF = CN[C@@H](Cc1ccccc1)C(=O)O; NMeI = CC[C@H](C)[C@H](NC)C(=O)O; NMeD = CN[C@@H](CC(=O)O)C(=O)O; NMeL = CN[C@@H](CC(C)C)C(=O)O; d(β3hP) = O=C(O)C[C@H]1CCCN1; NMeAbu = CC[C@H](NC)C(=O)O; Morpholide = C1CN(*)CCO1; NMeA = CN[C@@H](C)C(=O)O; NMeAib = CNC(C)(C)C(=O)O; Nle = CCCC[C@H](N)C(=O)O; Piperidide = C1CCN(*)CC1; Pra = C#CC[C@H](N)C(=O)O; Pyrrolidide = C1CCN(*)C1; Ac5c = NC1(C(=O)O)CCCC1; Aze = O=C(O)[C@@H]1CCN1; Sar = CNCC(=O)O

Each compound was assayed against T1, Kras and SOS1 (biotin-tagged human Kras loaded with GDP, His-tagged human SOS1) (Homo sapiens, UniProt P01116, G12D) (assay: Protein-protein interaction inhibition between Kras and SOS1 (KrasGl2D-SOS PPI) using AlphaScreen). Conditions: AlphaScreen; biotin-tagged human Kras loaded with GDP, His-tagged human SOS1; read-out: KRAS G12D-SOS PPI IC50.
T1 construct: made in house; host or cells: E. coli (stated for Kras only)
T1 sequence (P01116 1-188 isoform P01116-2 G12D): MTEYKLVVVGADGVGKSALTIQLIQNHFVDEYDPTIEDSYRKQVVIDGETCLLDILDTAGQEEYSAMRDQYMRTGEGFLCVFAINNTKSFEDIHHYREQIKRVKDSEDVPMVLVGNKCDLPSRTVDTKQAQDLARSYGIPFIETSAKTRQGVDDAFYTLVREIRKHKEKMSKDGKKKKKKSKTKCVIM
Assay type: binding
Summary of the method: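 Energy transfer from nickel-chelate donor beads bound to His-SOS1 to streptavidin acceptor beads bound to biotin-Kras, expressed in E. coli and loaded with GDP after purification, was monitored. Donors were excited at 680 nm; singlet oxygen reaching acceptors gave emission read at 520-620 nm.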

Row | SMILES | IC50
1 | CCCC[C@@H]1NC(=O)[C@H](Cc2cc(Br)ccc2F)NC(=O)CN(C)C(=O)[C@H](Cc2ccc(OC)cc2)N(C)C(=O)[C@@H]2CCN2C(=O)[C@H](C)N(C)C(=O)[C@H]([C@@H](C)CC)NC(=O)[C@H](CC)N(C)C(=O)C[C@@H](C(=O)N2CCCCC2)N(C)C(=O)[C@H](CC(C)C)NC(=O)C(C)(C)N(C)C1=O [Compound 1177] ([NMeAbu]I[NMeA][Aze][NMeY](Me)[Sar][Phe(2-F,5-Br)][Nle][NMeAib]L[NMeD]-Piperidide; lactam N-11) | 12 nM
2 | CC[C@H](C)[C@@H]1NC(=O)[C@H](CC(C)C)N(C)C(=O)C[C@@H](C(=O)N2C3CCC2COC3)N(C)C(=O)[C@H](C2CCCCC2)N(C)C(=O)C2(CCCC2)NC(=O)[C@@H]2CC(F)(F)CN2C(=O)[C@H](CCc2ccc(C(F)(F)F)c(Cl)c2)NC(=O)CN(C)C(=O)[C@H](CC2CCCCC2)N(C)C(=O)CN(C)C(=O)CN(C)C1=O [Compound 1179] ([NMeL]I[Sar][Sar][NMeCha][Sar][hPhe(3-Cl-4-CF3)][Pro(4,4-F2)][Ac5c][NMeChg][NMeD]-{3Oxa8azabicyclo(3.2.1)octane}; lactam N-11) | 0.52 nM
3 | CC[C@H](C)[C@@H]1NC(=O)[C@H](CC(F)(F)F)N(C)C(=O)C[C@@H](C(=O)N2CCOCC2)N(C)C(=O)[C@H](C2CCCCC2)N(C)C(=O)C2(CCCC2)NC(=O)[C@@H]2CC(F)(F)CN2C(=O)[C@H](CCc2ccc(C(F)(F)F)c(Cl)c2)NC(=O)CN(C)C(=O)[C@H](Cc2ccc(C(F)(F)F)cc2)N(C)C(=O)CN(C)C(=O)CN(C)C1=O [Compound 1182] ([NMeAbu(4,4,4-F3)]I[Sar][Sar][NMePhe(4-CF3)][Sar][hPhe(3-Cl-4-CF3)][Pro(4,4-F2)][Ac5c][NMeChg][NMeD]-Morpholide; lactam N-11) | 0.56 nM
4 | CC[C@H](C)[C@@H]1NC(=O)[C@H](CC2CCCC2)N(C)C(=O)C[C@@H](C(=O)N2CCCC2)N(C)C(=O)[C@H]([C@@H](C)CC)N(C)C(=O)C2(CCCC2)NC(=O)[C@@H]2CCCN2C(=O)[C@H](CCc2ccc(C(F)(F)F)c(Cl)c2)NC(=O)CN(C)C(=O)[C@H](Cc2ccc(C(F)(F)F)cc2)N(C)C(=O)[C@@H]2CCN2C(=O)[C@H](C)N(C)C1=O [Compound 1183] ([NMeAla(cPent)]I[NMeA][Aze][NMePhe(4-CF3)][Sar][hPhe(3-Cl-4-CF3)]P[Ac5c][NMeI][NMeD]-Pyrrolidide; lactam N-11) | 0.73 nM
5 | C#CC[C@@H]1NC(=O)[C@H](Cc2cccc(I)c2)NC(=O)CN(C)C(=O)[C@H](Cc2ccccc2)N(C)C(=O)CN(C)C(=O)CN(C)C(=O)[C@H]([C@@H](C)CC)NC(=O)[C@H](CC(C)C)N(C)C(=O)C[C@@H](C(=O)N2CCCCC2)N(C)C(=O)[C@H](CC(C)C)NC(=O)C(C)(C)N(C)C1=O [Compound 1184] ([NMeL]I[Sar][Sar][NMeF][Sar][Phe(3-I)][Pra][NMeAib]L[NMeD]-Piperidide; lactam N-11) | 130 nM
6 | CC[C@H](C)[C@@H]1NC(=O)[C@H](CC(C)C)N(C)C(=O)C[C@H]2CCCN2C(=O)[C@H](C2CCCCC2)N(C)C(=O)C2(CCCC2)NC(=O)[C@@H]2CCCN2C(=O)[C@H](CCc2ccc(C(F)(F)F)c(Cl)c2)NC(=O)CN(C)C(=O)[C@H](CC2CCCCC2)N(C)C(=O)CN(C)C(=O)CN(C)C1=O [Compound 1185] (cyclo([Ac5c][NMeChg][d(β3hP)][NMeL]I[Sar][Sar][NMeCha][Sar][hPhe(3-Cl-4-CF3)]P)) | 11 nM
7 | CC[C@H](C)[C@@H]1NC(=O)[C@H](CC(C)C)N(C)C(=O)C[C@@H](C(=O)N2CCCCC2)N(C)C(=O)[C@H](C2CCCCC2)N(C)C(=O)C2(CCCC2)NC(=O)[C@@H]2CCCN2C(=O)[C@H](CCc2ccc(C(F)(F)F)c(Cl)c2)NC(=O)CN(C)C(=O)[C@H](CC2CCCCC2)N(C)C(=O)[C@H](C)N(C)C(=O)CN(C)C1=O [Compound 1186] ([NMeL]I[Sar][NMeA][NMeCha][Sar][hPhe(3-Cl-4-CF3)]P[Ac5c][NMeChg][NMeD]-Piperidide; lactam N-11) | 8.6 nM
